Data published in patent US20130096302A1, “PYRROLOPYRAZINES AND PYRAZOLOPYRAZINES USEFUL AS INHIBITORS OF PROTEIN KINASES” (priority 2005, published 2013).

Target: T1, full length Aurora-A (AA 1-403) (Homo sapiens, UniProt O14965)
T1 sequence (O14965 1-403): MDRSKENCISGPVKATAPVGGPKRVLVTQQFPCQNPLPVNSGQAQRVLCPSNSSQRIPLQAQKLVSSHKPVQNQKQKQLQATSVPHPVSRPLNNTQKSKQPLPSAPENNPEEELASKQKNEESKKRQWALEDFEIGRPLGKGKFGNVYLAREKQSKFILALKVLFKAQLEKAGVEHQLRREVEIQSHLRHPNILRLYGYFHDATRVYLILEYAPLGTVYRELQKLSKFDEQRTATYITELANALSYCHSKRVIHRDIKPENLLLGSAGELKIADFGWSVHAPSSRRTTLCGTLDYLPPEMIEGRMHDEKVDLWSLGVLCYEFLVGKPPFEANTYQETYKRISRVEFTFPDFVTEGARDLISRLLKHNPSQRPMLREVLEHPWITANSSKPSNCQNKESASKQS
Assay: AuroraA Inhibition Assay (coupled enzyme system)
Type: biochemical
Conditions: standard coupled enzyme system, 200 μM ATP, 800 μM peptide (LRRASLG), 35 nM Aurora-A, 30° C.
Method: Compounds were screened for their ability to inhibit full length Aurora-A (AA 1-403) activity using a standard coupled enzyme system (Fox et al., Protein Sci., 7, pp. 2249 (1998)). Reactions were carried out in a solution containing 100 mM HEPES (pH 7.5), 10 mM MgCl2, 25 mM NaCl, 300 μM NADH, 1 mM DTT and 3% DMSO. Final substrate concentrations in the assay were 200 μM ATP (Sigma Chemicals, St Louis, Mo.) and 800 μM peptide (LRRASLG, American Peptide, Sunnyvale, Calif.). Reactions were carried out at 30° C. and 35 nM Aurora-A. Final concentrations of the components of the coupled enzyme system were 2.5 mM phosphoenolpyruvate, 200 μM NADH, 60 μg/ml pyruvate kinase and 20 μg/ml lactate dehydrogenase.
An assay stock buffer solution was prepared containing all of the reagents listed above with the exception of ATP and the test compound of interest. The assay stock buffer solution (60 μl) was incubated in a 96 well plate with 2 μl of the test compound of interest at final concentrations spanning 0.002 μM to 30 μM at 30° C. for 10 min. […] Rates of reaction were obtained using a Molecular Devices Spectramax plate reader (Sunnyvale, Calif.) over 10 min at 30° C. The Ki values were determined from the rate data as a function of inhibitor concentration using computerized nonlinear regression (Prism 3.0, Graphpad Software, San Diego, Calif.).

Ki [nM]	SMILES
< 200	Clc1cnc2[nH]cc(-c3cccc(Br)c3)c2n1 [Compound I-1, 7-(3-Bromo-phenyl)-2-chloro-5H-pyrrolo[2,3-b]pyrazine]
< 200	C[C@H](Nc1nc(-c2c[nH]c3ncc(Cl)nc23)ncc1F)c1ccc(F)cc1 [Compound I-28]
